Here are results for three compounds from ChEMBL document CHEMBL1201862, “PubChem BioAssay data set” (2004).

Assay [1] can be described thus: Vero cell cytotoxicity, cytotoxicity control for M. tuberculosis inhibitor project, purified and synthesized samples, set 8 (AID 602431). The class given is functional. As to conditions: Mycobacterium tuberculosis.
Assay [2] is described as follows: THP-1 cell cytotoxicity, cytotoxicity control, set 6 (AID 602433). The class given is functional. The following applies: Mycobacterium tuberculosis.
The target in assay [3] is Glycogen synthase kinase-3 beta (Homo sapiens, UniProt P49841). The experiment in a line: GSK3beta kinase inhibitors, dose response, biochemical, microfluidics, dry powder samples, set 2 (AID 623989). The format is functional.
Glycogen synthase kinase-3 beta, sequence (P49841 whole entry): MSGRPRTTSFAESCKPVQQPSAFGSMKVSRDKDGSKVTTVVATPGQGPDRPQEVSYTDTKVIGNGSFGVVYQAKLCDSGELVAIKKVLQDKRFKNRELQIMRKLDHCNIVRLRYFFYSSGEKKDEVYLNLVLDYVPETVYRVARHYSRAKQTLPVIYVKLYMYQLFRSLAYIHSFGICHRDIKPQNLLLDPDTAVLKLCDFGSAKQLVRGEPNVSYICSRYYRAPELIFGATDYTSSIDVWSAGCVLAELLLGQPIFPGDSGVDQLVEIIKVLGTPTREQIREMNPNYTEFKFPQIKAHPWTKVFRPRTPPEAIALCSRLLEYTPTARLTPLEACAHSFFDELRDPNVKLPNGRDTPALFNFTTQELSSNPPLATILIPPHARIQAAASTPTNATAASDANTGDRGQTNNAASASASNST
Assay [4] concerns the target Glycogen synthase kinase-3 alpha (Homo sapiens, UniProt P49840). The experiment in a line: human GSK3 alpha kinase inhibition, dose response, selectivity assay for GSK3beta inhibitor project, biochemical, microfluidics, dry powder samples, set 2 (AID 623978). The format is functional.
The target in assay [5] is Cyclin-dependent kinase 5/CDK5 activator 1 (Homo sapiens, UniProt Q00535). The experiment in a line: CDK5-p25 kinase inhibition, dose response, selectivity assay for GSK3beta inhibitor project, biochemical, microfluidic mobility shift, dry powder, set 2 (AID 623979). The format is functional.
Cyclin-dependent kinase 5/CDK5 activator 1, sequence (Q00535 whole entry): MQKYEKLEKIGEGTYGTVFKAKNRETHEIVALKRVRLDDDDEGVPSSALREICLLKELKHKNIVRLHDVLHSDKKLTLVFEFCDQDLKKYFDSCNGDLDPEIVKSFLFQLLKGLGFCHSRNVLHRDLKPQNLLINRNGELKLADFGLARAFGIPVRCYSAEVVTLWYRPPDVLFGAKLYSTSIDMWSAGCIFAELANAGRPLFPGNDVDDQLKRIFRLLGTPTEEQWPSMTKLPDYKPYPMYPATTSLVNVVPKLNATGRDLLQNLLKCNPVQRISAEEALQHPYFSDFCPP
Cyclin-dependent kinase 5/CDK5 activator 1, sequence (Q15078 whole entry, further chain): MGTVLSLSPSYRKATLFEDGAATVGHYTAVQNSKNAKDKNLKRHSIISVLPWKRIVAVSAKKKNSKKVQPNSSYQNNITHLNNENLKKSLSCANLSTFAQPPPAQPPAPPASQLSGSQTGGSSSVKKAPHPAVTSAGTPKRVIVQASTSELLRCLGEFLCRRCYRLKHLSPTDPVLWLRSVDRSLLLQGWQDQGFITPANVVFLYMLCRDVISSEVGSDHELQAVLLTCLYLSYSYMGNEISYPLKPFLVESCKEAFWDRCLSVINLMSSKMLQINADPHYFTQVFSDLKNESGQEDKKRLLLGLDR
A short description of assay [6]: inhibitors of firefly luciferase expression or activity, dose response, H4 neuroglioma cells, luminescence (AID 1990). The class given is functional, cell-based.
A short description of assay [7]: Luminescence Cell-Based Dose Response HTS to Identify Inhibitors of 5'UTR Stem-Loop Driven Prion Protein mRNA Translation in H4 Neuroglioblastoma Cells. [Related pubchem assays: 1827 (Project Summary), 1813 (Primary HTS)]. The format is functional.
The nature of assay [8]: inhibitors of SNCA 5'UTR-driven reporter translation, confirmation, H4 neuroglioma cells, luminescence (AID 1988). The class given is functional, cell-based.
The next assay deals with CHO-K1. Put plainly: Counterscreen for antagonists of the orexin 1 receptor (OX1R; HCRTR1): Homogeneous time resolved fluorescence (HTRF)-based cell-based dose response assay to identify antagonists of the parental CHO-K1 cell line. [Related pubchem assays (depositor defined):AID434989, AID435008, AID463079, AID485270, AID492963, AID492964, AID492965, AID493232, AID504699, AID504701]. The format is functional. The following applies: Cricetulus griseus.

Assay [9] in a line: Counterscreen for antagonists of the orexin 1 receptor (OX1R; HCRTR1): Fluorescence-based cell-based high throughput dose response assay to identify antagonists of the parental CHO cell line. [Related pubchem assays (depositor defined):AID434989, AID435008, AID463079, AID485270, AID492963, AID492964, AID492965, AID493232, AID504699, AID504701]. The format is functional. (In general: The purpose of a counterscreen is to sort out artefacts and off-target activity.)

Assay [10] deals with T1, Orexin/Hypocretin receptor type 1 (Homo sapiens, UniProt O43613).
T1 sequence (O43613 whole entry): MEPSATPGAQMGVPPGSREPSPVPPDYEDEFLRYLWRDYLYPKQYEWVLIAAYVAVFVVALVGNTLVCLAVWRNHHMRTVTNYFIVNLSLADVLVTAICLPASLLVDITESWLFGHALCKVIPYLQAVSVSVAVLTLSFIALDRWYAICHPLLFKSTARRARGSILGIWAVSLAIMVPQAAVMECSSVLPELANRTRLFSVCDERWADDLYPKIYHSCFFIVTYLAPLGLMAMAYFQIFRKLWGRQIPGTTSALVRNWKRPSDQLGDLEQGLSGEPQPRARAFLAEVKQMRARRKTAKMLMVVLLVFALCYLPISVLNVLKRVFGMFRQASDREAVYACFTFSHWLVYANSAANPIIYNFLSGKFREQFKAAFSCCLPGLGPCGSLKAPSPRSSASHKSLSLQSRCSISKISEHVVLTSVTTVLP
Put plainly: Homogeneous Time Resolved Fluorescence (HTRF)-based cell-based high throughput dose response assay for antagonists of the orexin 1 receptor (OX1R; HCRTR1). [Related pubchem assays (depositor defined):AID434989, AID435008, AID463079, AID485270, AID492963, AID492964, AID492965, AID493232, AID504717, AID504718]. The class given is functional.

Assay [11] deals with T1, Orexin/Hypocretin receptor type 1. The experiment in a line: Fluorescence-based cell-based high throughput dose response assay for antagonists of the orexin 1 receptor (OX1R; HCRTR1). [Related pubchem assays (depositor defined):AID434989, AID435008, AID463079, AID485270, AID492963, AID492964, AID492965, AID493232, AID504717, AID504718]. The format is functional.
Assay [12] has as its target T2, Orexin receptor type 2 (Homo sapiens, UniProt O43614). The experiment in a line: Counterscreen assay for antagonists of the orexin 1 receptor (OX1R; HCRTR1): Fluorescence-based cell-based dose response assay for antagonists of the orexin 2 receptor (OX2R; HCRTR2), run by assay provider. The format is functional.
Assay [13] addresses T2, Orexin receptor type 2. The experiment in a line: Counterscreen assay for antagonists of the orexin 1 receptor (OX1R; HCRTR1): Homogeneous Time Resolved Fluorescence (HTRF)-based cell-based dose response assay for antagonists of the orexin 2 receptor (OX2R; HCRTR2), run by assay provider. The class given is functional.

Activity calls are given as the source filed them. Unless noted, the calls are words filed in the database; no cut-off is given here.

T2 sequence (O43614 whole entry): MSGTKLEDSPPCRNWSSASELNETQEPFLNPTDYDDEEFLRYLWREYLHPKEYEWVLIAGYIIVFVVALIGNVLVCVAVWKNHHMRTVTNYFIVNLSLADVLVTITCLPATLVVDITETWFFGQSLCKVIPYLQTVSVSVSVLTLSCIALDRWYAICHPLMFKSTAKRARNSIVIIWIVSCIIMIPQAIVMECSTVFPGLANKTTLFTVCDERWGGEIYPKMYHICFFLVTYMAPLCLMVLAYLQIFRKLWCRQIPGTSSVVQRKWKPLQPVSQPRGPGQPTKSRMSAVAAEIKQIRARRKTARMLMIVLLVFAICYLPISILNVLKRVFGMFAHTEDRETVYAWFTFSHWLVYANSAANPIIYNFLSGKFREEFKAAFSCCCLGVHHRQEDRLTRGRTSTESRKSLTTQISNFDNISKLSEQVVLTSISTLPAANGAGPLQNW
Glycogen synthase kinase-3 alpha, sequence (P49840 whole entry): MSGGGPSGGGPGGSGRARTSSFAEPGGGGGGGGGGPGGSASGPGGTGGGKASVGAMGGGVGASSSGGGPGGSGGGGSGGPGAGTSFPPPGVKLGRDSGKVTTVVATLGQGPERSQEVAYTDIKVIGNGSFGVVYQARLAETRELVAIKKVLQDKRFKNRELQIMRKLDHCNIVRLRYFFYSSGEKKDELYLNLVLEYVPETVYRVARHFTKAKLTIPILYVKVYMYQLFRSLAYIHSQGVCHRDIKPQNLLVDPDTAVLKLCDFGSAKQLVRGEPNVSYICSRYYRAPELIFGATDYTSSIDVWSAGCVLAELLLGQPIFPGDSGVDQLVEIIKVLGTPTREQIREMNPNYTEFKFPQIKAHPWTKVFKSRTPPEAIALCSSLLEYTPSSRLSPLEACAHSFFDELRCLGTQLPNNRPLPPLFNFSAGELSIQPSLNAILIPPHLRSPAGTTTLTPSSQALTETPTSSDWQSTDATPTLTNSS

As a reminder, the CC50 is the concentration at which the toxic effect on the cells reaches its halfway point. `COc1ccc(NC(=O)NCc2ccc(C(=O)N3CCC(c4ccccc4)CC3)cc2)cc1`: the half-maximal cytotoxic concentration (CC50) is 91.3 µM (active) in assay [1] and > 98.9 µM (active) in assay [2].

For orientation: AC50 means the concentration giving half of the maximal activity seen. For the compound `Cc1cccc(C(=O)N[C@H]2C[C@@H](n3cnc(NC(=O)Cc4cccc5ccccc45)c3)C2)n1`, the AC50 in assay [3] was 0.107 µM (active); in assay [4], 0.361 µM (active); in assay [5], 0.038 µM (active).

Broadly, the EC50 is the concentration that produces a half-maximal response. In general, IC50 refers to the midpoint of a concentration-inhibition curve. As for `CN1C(=O)C2(N=c3ccccc3=N2)c2ccccc21`, the values for the EC50 in [6], in assay [7] and in [8] were 79.5 µM (active), > 120 µM (not active) and > 120 µM (not active), respectively. The IC50 is > 66.2 µM (inactive) with CHO-K1; > 49.7 µM (inactive) in assay [9]; 3.22 µM (active) in assay [10]; 13.8 µM (inactive) in assay [11]; > 88.8 µM (inactive) on Orexin receptor type 2 [12]; > 50 µM (inactive) at Orexin receptor type 2 [13].
